Key:
[1] = biological target: human D3 dopaminergic receptor (Homo sapiens, UniProt P35462); experiment: Affinity for human D3 receptors stably expressed in CHO cells, [3H]-spiperone competition; assay type: binding; details: CHO cell membranes, 0.5 nM [3H]-spiperone, 1 hour at 30° C.; read-out: Affinity (pKi) hD3 (converted)
Procedure: (§1) Determination of Affinity for Human D3, D2S and D2L Receptors Stably Expressed in CHO Cells
(§2) The various cell lines are cultured to confluence and then the cells are detached and are homogenised using a Polytron in a Tris-HCl buffer (50 mM, pH 7.4) containing 5 mM MgCl2. The cell debris is then centrifuged (15 minutes at 4° C.) and the sediment is taken up in an appropriate volume of HEPES buffer (20 mM) containing 150 mM NaCl and is frozen at −80° C. On the day of the experiment, the membranes are taken up in incubation buffer containing 50 mM Tris (pH 7.4), 120 mM NaCl, 5 mM KCl, 2 mM CaCl2 and 5 mM MgCl2. […] The non-specific binding is determined using 10 μM raclopride. At the end of the incubation period, the samples are filtered through Unifilter GF/B type filters pre-treated with PEI (0.1%) and washed several times with Tris-HCl filtration buffer (50 mM, pH 7.4) containing 120 mM NaCl. The radioactivity retained on the filters is counted after addition of scintillation liquid, with the aid of a scintillation counter. […] The results are expressed in terms of pKi=−log Ki.

[2] = biological target: human D2L dopaminergic receptor (Homo sapiens, UniProt P14416); experiment: Affinity for human D2L receptors stably expressed in CHO cells, [3H]-spiperone competition; assay type: binding; details: CHO cell membranes, 0.5 nM [3H]-spiperone, 1 hour at 30° C.; read-out: Affinity (pKi) hD2L (converted)
Procedure: as §1, §2

[3] = biological target: human D2S dopaminergic receptor (Homo sapiens, UniProt P14416); experiment: Affinity for human D2S receptors stably expressed in CHO cells, [3H]-spiperone competition; assay type: binding; details: CHO cell membranes, 0.5 nM [3H]-spiperone, 1 hour at 30° C.; read-out: Affinity (pKi) hD2S (converted)
Procedure: as §1, §2

D3/D2 receptor = experiment: Inhibition of hypothermia induced by the dopaminergic agonist PD128,907; assay type: in vivo, rat; details: for Δ (° C.) ± S.E.M.s: PD128,907 0.63 mg/kg s.c. at T0, rectal temperature 30 min later vs baseline; for ID50 (Inhibitory Dose50): inhibition of hypothermia induced by PD128,907 0.63 mg/kg s.c.
Procedure: Inhibition of Induction of Hypothermia Induced by the Dopaminergic Agonist PD128,907
In male rats of the Wistar strain, the baseline (rectal) temperature is measured and then the compound under test or the vehicle is administered by the oral route. Sixty minutes later, PD128,907 (0.63 mg/kg, s.c.), a D3/D2 dopaminergic agonist, is injected. Thirty minutes later, the body temperature is re-determined and the difference (Δ) from the baseline temperature is calculated.

[4] = male Wistar rats, compound 0.04 mg/kg p.o. at T-60 min
[5] = male Wistar rats, compound 0.16 mg/kg p.o. at T-60 min
[6] = male Wistar rats, compound 0.63 mg/kg p.o. at T-60 min
[7] = male Wistar rats, compound 2.5 mg/kg p.o. at T-60 min
[8] = male Wistar rats, compound 10.0 mg/kg p.o. at T-60 min

Chain of human D2S dopaminergic receptor (P14416 1-414 isoform P14416-2): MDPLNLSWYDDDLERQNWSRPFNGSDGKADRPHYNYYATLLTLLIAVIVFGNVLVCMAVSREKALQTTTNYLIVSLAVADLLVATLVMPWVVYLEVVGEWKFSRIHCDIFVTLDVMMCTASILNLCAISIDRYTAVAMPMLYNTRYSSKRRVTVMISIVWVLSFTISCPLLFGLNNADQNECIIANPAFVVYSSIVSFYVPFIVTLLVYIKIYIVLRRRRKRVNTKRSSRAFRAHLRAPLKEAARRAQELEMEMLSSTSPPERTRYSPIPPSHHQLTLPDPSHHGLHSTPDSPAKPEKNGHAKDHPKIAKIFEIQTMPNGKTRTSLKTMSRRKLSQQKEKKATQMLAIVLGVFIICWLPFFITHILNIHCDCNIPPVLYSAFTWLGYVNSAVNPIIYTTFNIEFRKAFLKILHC
Chain of human D2L dopaminergic receptor (P14416 whole entry): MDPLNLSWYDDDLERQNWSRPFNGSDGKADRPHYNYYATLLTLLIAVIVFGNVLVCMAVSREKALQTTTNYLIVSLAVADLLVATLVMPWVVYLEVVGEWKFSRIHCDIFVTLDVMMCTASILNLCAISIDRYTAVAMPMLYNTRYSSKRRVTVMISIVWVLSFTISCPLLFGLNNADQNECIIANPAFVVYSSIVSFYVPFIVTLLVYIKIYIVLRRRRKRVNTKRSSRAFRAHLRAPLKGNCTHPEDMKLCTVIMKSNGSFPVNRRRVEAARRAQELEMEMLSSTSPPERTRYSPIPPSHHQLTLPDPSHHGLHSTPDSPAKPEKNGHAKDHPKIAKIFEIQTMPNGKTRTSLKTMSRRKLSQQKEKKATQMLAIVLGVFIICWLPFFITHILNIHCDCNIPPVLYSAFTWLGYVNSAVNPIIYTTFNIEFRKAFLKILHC
Chain of human D3 dopaminergic receptor (P35462 whole entry): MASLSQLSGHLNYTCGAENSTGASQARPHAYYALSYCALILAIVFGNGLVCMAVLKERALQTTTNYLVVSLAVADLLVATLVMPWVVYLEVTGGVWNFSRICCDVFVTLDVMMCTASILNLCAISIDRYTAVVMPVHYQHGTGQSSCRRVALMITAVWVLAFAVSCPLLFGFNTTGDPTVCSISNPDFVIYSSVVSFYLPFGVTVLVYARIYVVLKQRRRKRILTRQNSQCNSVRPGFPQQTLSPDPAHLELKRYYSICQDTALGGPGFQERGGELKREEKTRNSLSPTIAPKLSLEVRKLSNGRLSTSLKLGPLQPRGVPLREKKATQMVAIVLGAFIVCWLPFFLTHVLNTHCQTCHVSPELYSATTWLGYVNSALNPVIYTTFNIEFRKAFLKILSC

Structure (SMILES)	Ki [1]	Ki [2]	Ki [3]	Δ (° C.) ± S.E.M.s (D3/D2 receptor; [4])	Δ (° C.) ± S.E.M.s (D3/D2 receptor; [5])	Δ (° C.) ± S.E.M.s (D3/D2 receptor; [6])	Δ (° C.) ± S.E.M.s (D3/D2 receptor; [7])	Δ (° C.) ± S.E.M.s (D3/D2 receptor; [8])	ID50 (Inhibitory Dose50) (D3/D2 receptor; male Wistar rats)	Blocking of PD 128,907-induced hypothermia (D3/D2 receptor; male Wistar rats, oral route)	Effect of PD 128,907 on body temperature (D3/D2 receptor; in the presence of the vehicle)
CC(=O)N[C@H]1CC[C@H](CCN2C[C@H]3COc4ccc(C#N)cc4[C@@H]3C2)CC1.Cl [Example 2, N-(trans-4-{2-[(3aS,9bR)-8-cyano-1,3a,4,9b-tetrahydrochromeno[3,4-c]pyrrol-2(3H)-yl]ethyl}cyclohexyl)acetamide hydrochloride]	0.002 µM	0.1 µM	0.117 µM	−1.73 ± 0.26 °C	−1.33 ± 0.11 °C	−0.97 ± 0.28 °C	−0.4 ± 0.13 °C	+0.1 ± 0.33 °C	1.33 mg/kg, p.o.	–	–
Cl.N#Cc1ccc2c(c1)[C@@H]1CN(CC[C@H]3CC[C@H](NC(=O)C4CCC4)CC3)C[C@H]1CO2 [Example 3, N-(trans-4-{2-[(3aS,9bR)-8-cyano-1,3a,4,9b-tetrahydrochromeno[3,4-c]pyrrol-2(3H)-yl]ethyl}cyclohexyl)cyclobutanecarboxamide hydrochloride]	0.00186 µM	0.0501 µM	0.0562 µM	−1.65 ± 0.09 °C	−1.62 ± 0.07 °C	−0.83 ± 0.20 °C	−0.33 ± 0.16 °C	+0.35 ± 0.18 °C	0.64 mg/kg, p.o.	blocked in dose-dependent manner	–
CCCN1CCO[C@@H]2c3cc(O)ccc3OC[C@H]21 [PD128,907, reference compound]	–	–	–	–	–	–	–	–	–	–	brings about hypothermia

From patent publication US8247441B2, “Chromene compounds, a process for their preparation and pharmaceutical compositions containing them” (Les Laboratoires Servier, priority 2009, dated 2012)
